Assay results taken from patent US5554542A, “Immunoassay for isothiazolones” (Rohm and Haas Company, priority 1993, dated 1996).

What was measured:
[1] = tested on: anti-651 antibody covalently linked to horseradish peroxidase; assay: Colorometric determination of isothiazolones in wood with anti-651-HRP; format: binding; conditions: pressure treated Southern Yellow pine wafer, anti-651-HRP 500 ng/ml, ABTS, corrected for background; control wafer 0.002
Description: Southern Yellow pine, which had been pressure treated with a solution containing 4,5-dichloro-2-n-octyl-3-isothiazolone using commercial methods, was cut into wafers (0.5×2.5 cm). These wood wafers were soaked in a solution of 3% nonfat milk for 30 minutes. The wafers were then rinsed briefly with PBS-T, and then exposed to the anti-651 antibody, which is covalently linked to horseradish peroxidase at 500 ng/ml, for 15 minutes. The wafers were then washed twice for 30 minutes each in PBS-T buffer. The bound anti-651-HRP complex was visualized by placing the wafers in a vial containing HRP substrate (ABTS). The appearance of a […] color in the solution indicated the presence of 4,5-dichloro-2-n-octyl-3-isothiazolone. A 200 μl aliquot of the solution in the vial was taken and the absorbance determined at 405 nm. This was compared to a control wood wafer treated in an identical manner but containing no isothiazolone. The absorbance values were then corrected for background.

[2] = tested on: antibodies produced by cell culture 89-147EH9; assay: CIEIA for detection of biocides, four inhibitors at several concentrations; format: binding, mouse; conditions: no inhibitor 515
Description: The supernatants from wells with growing colonies of hybridomas were screened using CIEIA. Ninety-six well polystyrene EIA ([…]) plates were coated with 100 μl of 651 conjugated to BSA (651-BSA) for at least two hours at room temperature or 16 hours at 4° C. Unbound material was washed from the wells with five washes of PBS-T. […] The wells then received 50 μl of supernatant from each cell culture, so that each supernatant was reacted with either buffer, 651 or 573 (inhibitors). […] The wells were incubated for 30-60 minutes at room temperature. They were then washed five times with PBS-T to remove unbound material and each well then received 100 μl of a 1 μg/ml solution of biotinylated horse anti-mouse IgG (Vector Laboratories, Burlingame, Calif.), and the assay continued as described for the ELISA, supra.

CCCCCCCCn1sc(Cl)c(Cl)c1=O [compound 287, 4,5-dichloro-2-n-octyl-3-isothiazolone]
A405 [1]: 0.165

CCCCCCCCn1sccc1=O [compound 893, 2-n-octyl-3-isothiazolone]
10 Minute Absorbances × 1000 ([2]; inhibitor concentration 2 ppm): 514
10 Minute Absorbances × 1000 ([2]; inhibitor concentration 10 ppm): 589
10 Minute Absorbances × 1000 ([2]; inhibitor concentration 50 ppm): 516

CNC(=O)CC(=O)O [NMA, Nmethyl malonamic acid]
10 Minute Absorbances × 1000 ([2]; inhibitor concentration 0.08 ppm): 429
10 Minute Absorbances × 1000 ([2]; inhibitor concentration 0.4 ppm): 519
10 Minute Absorbances × 1000 ([2]; inhibitor concentration 2 ppm): 496
10 Minute Absorbances × 1000 ([2]; inhibitor concentration 10 ppm): 518
10 Minute Absorbances × 1000 ([2]; inhibitor concentration 50 ppm): 490
